Measurements: US9902696B2, “1,4-substituted piperidine derivatives” (Cephalon, Inc., priority 2015, dated 2018)
Where a name gives a salt, the structure may show the parent alone.

target: T1, recombinant human baculovirus-expressed GST-tagged FASN (Homo sapiens, UniProt P49327); experiment: FASN enzyme activity assay, fluorescence-based detection of CoA with CPM; format: biochemical; settings: 5 nM FASN, 150 μM NADPH, 10 μM acetyl-CoA, 25 μM malonyl-CoA, 90 minutes incubation; read-out: IC50 data for Additional Compounds of Formulae I-V(a): Activity
T1 construct: GST
T1 sequence (P49327 whole entry): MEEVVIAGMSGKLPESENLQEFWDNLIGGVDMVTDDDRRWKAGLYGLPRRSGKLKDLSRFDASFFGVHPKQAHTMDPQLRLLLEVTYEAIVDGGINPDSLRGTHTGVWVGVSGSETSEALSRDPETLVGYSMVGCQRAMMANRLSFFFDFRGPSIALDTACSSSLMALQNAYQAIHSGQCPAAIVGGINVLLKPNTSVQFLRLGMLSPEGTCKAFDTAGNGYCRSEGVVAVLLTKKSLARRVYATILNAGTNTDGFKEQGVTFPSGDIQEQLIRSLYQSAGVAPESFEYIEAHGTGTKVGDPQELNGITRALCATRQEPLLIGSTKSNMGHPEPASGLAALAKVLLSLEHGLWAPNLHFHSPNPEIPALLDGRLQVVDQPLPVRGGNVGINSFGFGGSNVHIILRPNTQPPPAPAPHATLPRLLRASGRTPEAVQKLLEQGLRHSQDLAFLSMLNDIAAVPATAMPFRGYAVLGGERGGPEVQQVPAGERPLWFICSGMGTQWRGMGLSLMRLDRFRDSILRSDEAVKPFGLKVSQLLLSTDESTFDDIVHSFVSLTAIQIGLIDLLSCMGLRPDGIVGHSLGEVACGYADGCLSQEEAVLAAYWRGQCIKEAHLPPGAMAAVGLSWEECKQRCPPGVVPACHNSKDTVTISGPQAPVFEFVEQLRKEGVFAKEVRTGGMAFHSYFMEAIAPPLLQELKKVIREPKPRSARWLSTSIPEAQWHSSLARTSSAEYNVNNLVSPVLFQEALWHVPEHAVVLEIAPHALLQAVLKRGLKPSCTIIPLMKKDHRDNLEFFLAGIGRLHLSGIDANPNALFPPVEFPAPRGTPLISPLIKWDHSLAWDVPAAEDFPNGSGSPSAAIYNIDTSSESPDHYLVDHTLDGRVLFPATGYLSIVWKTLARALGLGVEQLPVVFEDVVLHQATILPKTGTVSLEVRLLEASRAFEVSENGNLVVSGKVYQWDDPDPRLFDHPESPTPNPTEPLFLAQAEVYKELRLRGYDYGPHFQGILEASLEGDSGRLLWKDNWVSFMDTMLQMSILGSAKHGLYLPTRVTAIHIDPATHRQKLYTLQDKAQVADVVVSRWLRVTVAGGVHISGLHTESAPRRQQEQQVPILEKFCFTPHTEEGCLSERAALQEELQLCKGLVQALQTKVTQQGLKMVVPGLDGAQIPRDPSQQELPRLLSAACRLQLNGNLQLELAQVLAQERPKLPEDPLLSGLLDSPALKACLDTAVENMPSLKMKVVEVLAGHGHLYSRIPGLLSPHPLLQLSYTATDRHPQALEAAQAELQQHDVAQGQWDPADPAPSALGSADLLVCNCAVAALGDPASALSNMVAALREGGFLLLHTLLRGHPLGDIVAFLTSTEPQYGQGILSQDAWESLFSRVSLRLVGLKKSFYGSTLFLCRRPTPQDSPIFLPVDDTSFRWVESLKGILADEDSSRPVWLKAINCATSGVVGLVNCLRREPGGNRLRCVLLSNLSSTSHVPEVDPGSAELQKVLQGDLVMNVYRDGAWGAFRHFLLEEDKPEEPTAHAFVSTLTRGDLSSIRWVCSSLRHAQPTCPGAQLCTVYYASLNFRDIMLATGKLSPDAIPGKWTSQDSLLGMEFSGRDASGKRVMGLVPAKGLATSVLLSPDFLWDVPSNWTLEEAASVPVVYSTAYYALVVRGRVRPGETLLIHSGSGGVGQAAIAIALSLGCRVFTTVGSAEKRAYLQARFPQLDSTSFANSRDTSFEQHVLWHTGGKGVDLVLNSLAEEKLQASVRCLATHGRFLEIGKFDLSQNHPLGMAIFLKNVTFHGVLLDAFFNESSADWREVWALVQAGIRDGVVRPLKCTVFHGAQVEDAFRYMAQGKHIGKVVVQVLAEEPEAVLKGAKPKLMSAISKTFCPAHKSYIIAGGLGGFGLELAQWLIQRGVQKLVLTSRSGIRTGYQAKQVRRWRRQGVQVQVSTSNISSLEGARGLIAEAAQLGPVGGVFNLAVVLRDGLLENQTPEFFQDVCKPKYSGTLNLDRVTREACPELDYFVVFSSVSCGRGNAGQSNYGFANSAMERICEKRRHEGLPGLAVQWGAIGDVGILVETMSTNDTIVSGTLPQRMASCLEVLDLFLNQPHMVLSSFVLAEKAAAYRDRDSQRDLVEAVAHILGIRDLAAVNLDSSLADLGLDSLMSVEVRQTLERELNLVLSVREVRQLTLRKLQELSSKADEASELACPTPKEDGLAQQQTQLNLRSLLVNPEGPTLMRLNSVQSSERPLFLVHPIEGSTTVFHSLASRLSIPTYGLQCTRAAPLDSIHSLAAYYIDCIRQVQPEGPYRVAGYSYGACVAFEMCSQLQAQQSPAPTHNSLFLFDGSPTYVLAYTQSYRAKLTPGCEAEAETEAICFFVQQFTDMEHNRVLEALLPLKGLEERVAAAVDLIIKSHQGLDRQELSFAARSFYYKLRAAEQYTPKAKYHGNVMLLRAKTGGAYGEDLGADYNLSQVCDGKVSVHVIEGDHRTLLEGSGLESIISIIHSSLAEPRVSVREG
Procedure, shortened: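 Human GST-tagged FASN, baculovirus-expressed (5 nM), in 50 mM HEPES pH 7.5 with 150 μM NADPH, 10 μM acetyl-CoA, 25 μM malonyl-CoA, 0.5% DMSO; malonyl-CoA-started, 90 min. Released CoA detected with CPM (50 μM dilution), 30 min, fluorescence ex 390/em 530. IC50 from variable-slope sigmoidal fit of % inhibition versus log concentration.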

Compound	IC50
CCNC(=O)N1CCC(Oc2ccc(-c3ccc4ccc(O)nc4c3C)cc2)CC1 [Example 529, N-Ethyl-4-[4-(2-hydroxy-8-methyl-7-quinolyl)phenoxy]piperidine-1-carboxamide]	1000 to 10000 nM
Cc1c(-c2ccc(OC3CCN(C(=O)[C@H](C)N)CC3)cc2)ccc2cccnc12 [Example 612, (2S)-2-Amino-1-[4-[4-(8-methyl-7-quinolyl)phenoxy]-1-piperidyl]propan-1-one 2HCl]	1 to 99 nM
Cc1c(-c2ccc(OC3CCN(C(=O)NCC4CC4)CC3)cc2)ccc2cccnc12 [Example 540, N-(Cyclopropylmethyl)-4-[4-(8-methyl-7-quinolyl)phenoxy]piperidine-1-carboxamide, HCl]	1 to 99 nM
Cc1c(-c2ccc(OC3CCN(C(=O)OC4CCOC4)CC3)cc2)ccc2cccnc12 (centres unmarked) [Example 559, Tetrahydrofuran-3-yl 4-[4-(8-methyl-7-quinolyl)phenoxy]piperidine-1-carboxylate]	1 to 99 nM
CCN1CCN(C(=O)N2CCC(Oc3ccc(-c4ccc5cccnc5c4C)cc3)CC2)CC1 [Example 535, (4-Ethyl lpiperazin-1-yl)-[4-[4-(8-methyl-7-quinolyl)phenoxy]-1-piperidyl]methanone tosylate]	1000 to 10000 nM
Cc1c(-c2ccc(OC3CCN(C(=O)NCC4CC4)CC3)cc2)ccc2nccn12 [Example 595, N-(Cyclopropylmethyl)-4-[4-(5-methylimidazo[1,2-a]pyridin-6-yl)-phenoxy]piperidine-1-carboxamide]	100 to 999 nM

same assay, conditions: 5 nM FASN, 150 μM NADPH, 10 μM acetyl-CoA, 25 μM malonyl-CoA, 90 minutes incubation; read-out: IC50 data for Compounds of Formulae I-V/V(a): Activity

Compound	IC50
Cc1cccc2cc(-c3ccc(OC4CCN(C(=O)C5CC5)CC4)cc3)cnc12 [Example 487, Cyclopropyl-{4-[4-(8-methylquinolin-3-yl)-phenoxy]-piperidin-1-yl}-methanone]	1 to 99 nM
Cc1c(-c2ccc(OC3CCN(C(=O)C4CC4)CC3)cc2)ccc2cccnc12 [Example 37, Cyclopropyl-{4-[4-(8-methylquinolin-7-yl)-phenoxy]-piperidin-1-yl}-methanone]	1 to 99 nM
CCC(=O)N1CCC(Oc2ccc(-c3cnc4cccnc4c3)cc2)CC1 [Example 12, 1-[4-(4-1,5-Naphthyridin-3-yl-phenoxy)-piperidin-1-yl]-propan-1-one]	1000 to 10000 nM
CCOc1c(-c2ccc(OC3CCN(C(=O)[C@H]4CCCO4)CC3)cc2)ccc2cccnc12 [Example 181, {4-[4-(8-Ethoxyquinolin-7-yl)-phenoxy]-piperidin-1-yl}-(R)-tetrahydro-furan-2-yl-methanone, HCl]	1 to 99 nM
Cc1c(-c2ccc(O[C@H]3CCN(C(=O)[C@H]4CCCO4)C[C@H]3F)cc2)ccc2cccnc12 [Example 366, {cis-3-Fluoro-4-[4-(8-methylquinolin-7-yl)-phenoxy]-piperidin-1-yl}-(R)-tetrahydrofuran-2-yl-methanone HCl]	1 to 99 nM
CCC(=O)N1CCC(Oc2ccc(-c3ccc4cccnc4c3Cl)cc2F)CC1 [Example 224, 1-{4-[4-(8-Chloroquinolin-7-yl)-2-fluorophenoxy]-piperidin-1-yl}-propan-1-one]	1 to 99 nM
O=C(C1CCC1)N1CCC(Oc2ccc(-c3cc(O)c4ccnn4c3)cc2)CC1 [Example 427, Cyclobutyl-{4-[4-(4-hydroxy-pyrazolo[1,5-a]pyridin-6-yl)-phenoxy]-piperidin-1-yl}-methanone]	1000 to 10000 nM
O=CN1CCC(Oc2ccc(-c3cnc4ccccc4c3)cc2)CC1 [Example 153, 4-(4-Quinolin-3-yl-phenoxy)-piperidine-1-carbaldehyde, HCl]	1000 to 10000 nM
O=C1CC[C@H](C(=O)N2CCC(Oc3ccc(-c4cnc5ccccc5c4)cc3)CC2)O1 [Example 120, (R)-5-[4-(4-Quinolin-3-yl-phenoxy)-piperidine-1-carbonyl]-dihydrofuran-2-one, HCl]	1 to 99 nM
O=C(C1CC1)N1CCC(Oc2ccc(-c3ccc4cnccc4c3)cc2)CC1 [Example 466, Cyclopropyl-[4-(4-isoquinolin-6-yl-phenoxy)-piperidin-1-yl]-methanone]	1 to 99 nM
CCC(=O)N1CCC(Oc2ccc(-c3cncc(Nc4ccccc4)c3)cc2)CC1 [Example 401, 1-{4-[4-(5-Phenylaminopyridin-3-yl)-phenoxy]-piperidin-1-yl}-propan-1-one, TFA salt]	1000 to 10000 nM
CCc1cc2cc(-c3ccc(OC4CCN(C(=O)[C@H]5CCCO5)CC4)cc3)ccc2cn1 [Example 476, {4-[4-(3-Ethylisoquinolin-6-yl)-phenoxy]-piperidin-1-yl}-(R)-tetrahydro-furan-2-yl-methanone]	1 to 99 nM
O=C(C1CCCC1)N1CCC(Oc2ccc(-c3cnc4ccccc4c3)cc2)CC1 [Example 102, Cyclopentyl-[4-(4-quinolin-3-yl-phenoxy)-piperidin-1-yl]-methanone, 2HCl]	100 to 999 nM
O=C(C1CCC1)N1CCC(Oc2ccc(-c3cnc4ccccc4c3)cc2)CC1 [Example 101, Cyclobutyl-[4-(4-quinolin-3-yl-phenoxy)-piperidin-1-yl]-methanone,HCl]	1 to 99 nM
CN(C)CCNc1c(-c2ccc(OC3CCN(C(=O)[C@H]4CCCO4)CC3)cc2)ccc2cccnc12 [Example 329, (4-{4-[8-(2-Dimethylaminoethylamino)-quinolin-7-yl]-phenoxy}-piperidin-1-yl)-(R)tetrahydrofuran-2-yl-methanone]	1 to 99 nM
CC(C)C(=O)N1CCC(Sc2ccc(-c3ccc4cccnc4c3)cc2)CC1 [Example 520, HCl]	1 to 99 nM

Compound	IC50
CCC(=O)N1CC[C@H](Oc2ccc(-c3cnc4ccccc4c3)cc2)C1 [Example 343, (S)-1-(3-(4-(Quinolin-3-yl)phenoxy)pyrrolidin-1-yl)propan-1-one, HCl]	1000 to 10000 nM
O=C([C@H]1CCCO1)N1CCC(Oc2ccc(-c3cnc4ccccc4c3Cl)cc2)CC1 [Example 71, {4-[4-(4-Chloroquinolin-3-yl)-phenoxy]-piperidin-1-yl}-(R)-tetrahydro-furan-2-yl-methanone]	1 to 99 nM
O=C(C1CCC1)N1CCC(Oc2ccc(-c3cncc(Oc4ccccc4)c3)cc2)CC1 [Example 400, Cyclobutyl-{4-[4-(5-phenoxypyridin-3-yl)-phenoxy]-piperidin-1-yl}-methanone, HCl]	1000 to 10000 nM
O=C(C1CC1)N1CCC(Oc2ccc(-c3ccc(Oc4ccccc4)cc3)cc2)CC1 [Example 509, Cyclopropyl-[4-(4′-phenoxybiphenyl-4-yloxy)-piperidin-1-yl]-methanone]	1000 to 10000 nM
O=C(C1CC1)N1CCC(Oc2ccc(-c3ccc4nnc(C(F)(F)F)n4c3)cc2)CC1 [Example 160, Cyclopropyl-{4-[4-(3-trifluoromethyl-1,2,4-triazolo[4,3-a]pyridin-6-yl)-phenoxy]-piperidin-1-yl}-methanone, HCl]	1000 to 10000 nM
CCC(=O)N1CCC(Oc2ccc(-c3cnc4ccc(C)cc4c3)cc2)CC1 [Example 483, 1-{4-[4-(6-Methylquinolin-3-yl)-phenoxy]-piperidin-1-yl}-propan-1-one, HCl]	1 to 99 nM
CCC(=O)N1CCC(Oc2ccc(-c3cc(C)c4cccnc4c3)cc2)CC1 [Example 346, 1-(4-(4-(5-Methylquinolin-7-yl)phenoxy)piperidin-1-yl)propan-1-one, HCl]	100 to 999 nM
Cc1c(-c2ccc(O[C@H]3C[C@H]4CC[C@@H](C3)N4C(=O)C3CC3)cc2)ccc2cccnc12 [Example 370, Cyclopropyl-{endo-3-[4-(8-methylquinolin-7-yl)-phenoxy]-8-aza-bicyclo-[3.2.1]oct-8-yl}-methanone, HCl]	100 to 999 nM
COc1ccc2ncc(-c3ccc(OC4CCN(C(=O)[C@H]5CCCO5)CC4)cc3)cc2c1 [Example 450, {4-[4-(6-Methoxyquinolin-3-yl)-phenoxy]-piperidin-1-yl}-(R)-tetrahydro-furan-2-yl-methanone, HCl]	1 to 99 nM
O=C(C1CCC1)N1CCC(Oc2ccc(-c3cnc4c(c3)CCCC4)cc2)CC1 [Example 20, Cyclobutyl-{4-[4-(5,6,7,8-tetrahydroquinolin-3-yl)-phenoxy]-piperidin-1-yl}-methanone]	1000 to 10000 nM
O=C([C@H]1CCCO1)N1CCC(Oc2ccc(-c3ccc4c(Cl)nccc4c3)cc2)CC1 [Example 429, {4-[4-(1-Chloroisoquinolin-6-yl)-phenoxy]-piperidin-1-yl}-(R)-tetrahydro-furan-2-yl-methanone]	1 to 99 nM
O=C([C@H]1CCCO1)N1CCC(Oc2ccc(-c3ccc4cccnc4c3NCCN3CCCC3)cc2)CC1 [Example 334, (4-{4-[8-(2-Pyrrolidin-1-yl-ethylamino)-quinolin-7-yl]-phenoxy}-piperidin-1-yl)-(R)-tetrahydrofuran-2-yl-methanone]	100 to 999 nM
O=C(C1CC1)N1CCC(Oc2ccc(-c3cnc4cccnc4c3)cc2)CC1 [Example 14, Cyclopropyl-[4-(4-1,5-naphthyridin-3-yl-phenoxy)-piperidin-1-yl]-methanone]	1000 to 10000 nM
O=C(C1CC1)N1CCC(Oc2ccc(-c3ccc4c(c3)OCCO4)cc2)CC1 [Example 503, Cyclopropyl-{4-[4-(2,3-dihydro-1,4-benzodioxin-6-yl)-phenoxy]-piperidin-1-yl}-methanone]	1000 to 10000 nM
O=C([C@H]1CCCO1)N1CCC(Oc2ccc(-c3cnc4cccc(F)c4c3)cc2)CC1 [Example 28, {4-[4-(5-Fluoroquinolin-3-yl)-phenoxy]-piperidin-1-yl}-(R)-tetrahydrofuran-2-yl-methanone]	1 to 99 nM
Cc1cccc2cc(-c3ccc(OC4CCN(C(=O)[C@H]5CCCO5)CC4)cc3)cnc12 [Example 488, {4-[4-(8-Methylquinolin-3-yl)-phenoxy]-piperidin-1-yl}-(R)-tetrahydro-furan-2-yl-methanone]	1 to 99 nM
